Measurements published in patent publication US9707305B2, “Formulas for diagnosing and treating hormone-dependent cancers and cancers of the organs responsible for steroid hormone synthesis” (Commissariat à l'énergie atomique et aux énergies …, priority 2011, dated 2017).

Assay: Biodistribution of the nano-emulsion of Example 1.1 in male mice (Tables 15 to 21)
Format: in vivo
Conditions: FVB male mouse
Protocol: In the following examples, the radioactivity was counted with the TRiCarb Counter (Ref: Packard, Liquid Scintillation Analyzers; Models 2200CA).
Fluobeam 700 (Fluoptics) is the apparatus with which the whole of the organs from the biodistribution were analyzed in fluorescence as well as the one with which the biodistribution kinetics of the nano-emulsions were established in vivo. This imaging system allows viewing of the fluorescence in spectral bands from 700 to 850 nm for a 650 nm excitation. The apparatus consists of an electric case containing the laser of class 3B, its power supply and an optical head containing the CCD camera. […]

CCCCCCCCCCCCCCCCCCN1/C(=C/C=C/C=C/C2=[N+](CCCCCCCCCCCCCCCCCC)c3ccccc3C2(C)C)C(C)(C)c2ccccc21.[O-][Cl+3]([O-])([O-])[O-] [DiD, l,r-dioctadécyl-3,3,3′,3′-tetramethylindodicarbocyanine (DiD) perchlorate]
fluorescence intensity in Adrenal gland (2 h): 779.1
fluorescence intensity in Adrenal gland (4 h): 536.1
fluorescence intensity in Adrenal gland (6 h): 721.9
fluorescence intensity in Adrenal gland (16 h): 1086.2
fluorescence intensity in Adrenal gland (24 h): 1105.9
fluorescence intensity in Adrenal gland (48 h): 783.7
fluorescence intensity in Adrenal gland (72 h): 717.3
fluorescence intensity in Brain (2 h): 186.5
fluorescence intensity in Brain (4 h): 150.6
fluorescence intensity in Brain (6 h): 235.9
fluorescence intensity in Brain (16 h): 134.7
fluorescence intensity in Brain (24 h): 109.3
fluorescence intensity in Brain (48 h): 160.4
fluorescence intensity in Brain (72 h): 14.8
fluorescence intensity in Fat (2 h): 184.0
fluorescence intensity in Fat (4 h): 128.3
fluorescence intensity in Fat (6 h): 221.1
fluorescence intensity in Fat (16 h): 117.0
fluorescence intensity in Fat (24 h): 142.1
fluorescence intensity in Fat (48 h): 185.1
fluorescence intensity in Fat (72 h): 78.0
fluorescence intensity in Heart (2 h): 427.6
fluorescence intensity in Heart (4 h): 306.9
fluorescence intensity in Heart (6 h): 253.8
fluorescence intensity in Heart (16 h): 281.5
fluorescence intensity in Heart (24 h): 239.7
fluorescence intensity in Heart (48 h): 178.1
fluorescence intensity in Heart (72 h): 142.3
fluorescence intensity in Intestine (2 h): 392.1
fluorescence intensity in Intestine (4 h): 336.2
fluorescence intensity in Intestine (6 h): 378.0
fluorescence intensity in Intestine (16 h): 640.4
fluorescence intensity in Intestine (24 h): 621.0
fluorescence intensity in Intestine (48 h): 381.6
fluorescence intensity in Intestine (72 h): 267.8
fluorescence intensity in Kidney (2 h): 601.1
fluorescence intensity in Kidney (4 h): 505.0
fluorescence intensity in Kidney (6 h): 427.7
fluorescence intensity in Kidney (16 h): 343.0
fluorescence intensity in Kidney (24 h): 323.1
fluorescence intensity in Kidney (48 h): 168.3
fluorescence intensity in Kidney (72 h): 160.3
fluorescence intensity in Liver (2 h): 831.9
fluorescence intensity in Liver (4 h): 813.0
fluorescence intensity in Liver (6 h): 847.4
fluorescence intensity in Liver (16 h): 1157.2
fluorescence intensity in Liver (24 h): 1152.7
fluorescence intensity in Liver (48 h): 988.2
fluorescence intensity in Liver (72 h): 648.0
fluorescence intensity in Lung (2 h): 559.9
fluorescence intensity in Lung (4 h): 446.4
fluorescence intensity in Lung (6 h): 426.0
fluorescence intensity in Lung (16 h): 423.5
fluorescence intensity in Lung (24 h): 406.0
fluorescence intensity in Lung (48 h): 346.5
fluorescence intensity in Lung (72 h): 286.6
fluorescence intensity in Muscle (2 h): 176.7
fluorescence intensity in Muscle (4 h): 152.3
fluorescence intensity in Muscle (6 h): 169.3
fluorescence intensity in Muscle (16 h): 281.9
fluorescence intensity in Muscle (24 h): 144.9
fluorescence intensity in Muscle (48 h): 131.7
fluorescence intensity in Muscle (72 h): 109.2
fluorescence intensity in Pancreas (2 h): 255.1
fluorescence intensity in Pancreas (4 h): 295.0
fluorescence intensity in Pancreas (6 h): 347.0
fluorescence intensity in Pancreas (16 h): 332.6
fluorescence intensity in Pancreas (24 h): 268.9
fluorescence intensity in Pancreas (48 h): 266.2
fluorescence intensity in Pancreas (72 h): 160.6
fluorescence intensity in Salivary gland (2 h): 310.0
fluorescence intensity in Salivary gland (4 h): 297.8
fluorescence intensity in Salivary gland (6 h): 488.5
fluorescence intensity in Salivary gland (16 h): 838.8
fluorescence intensity in Salivary gland (24 h): 501.1
fluorescence intensity in Salivary gland (48 h): 489.7
fluorescence intensity in Salivary gland (72 h): 430.2
fluorescence intensity in Seminal gland (4 h): 179.5
fluorescence intensity in Seminal gland (6 h): 261.0
fluorescence intensity in Seminal gland (16 h): 163.0
fluorescence intensity in Seminal gland (24 h): 170.6
fluorescence intensity in Seminal gland (48 h): 166.7
fluorescence intensity in Seminal gland (72 h): 74.4
fluorescence intensity in Seminal glands (Seminal glands, 2 h): 175.3
fluorescence intensity in Spleen (2 h): 455.7
fluorescence intensity in Spleen (4 h): 407.4
fluorescence intensity in Spleen (6 h): 488.6
fluorescence intensity in Spleen (16 h): 373.3
fluorescence intensity in Spleen (24 h): 638.0
fluorescence intensity in Spleen (48 h): 656.7
fluorescence intensity in Spleen (72 h): 278.0
fluorescence intensity in Testicle (2 h): 639.9
fluorescence intensity in Testicle (4 h): 470.9
fluorescence intensity in Testicle (6 h): 723.1
fluorescence intensity in Testicle (16 h): 525.4
fluorescence intensity in Testicle (48 h): 648.6
fluorescence intensity in Testicle (72 h): 481.2
